In patent US9174974B2, “Macrocyclic factor VIIa inhibitors” (BRISTOL-MYERS SQUIBB COMPANY, priority 2012, dated 2015):

Legend:
human FVIIa = human FVIIa (Homo sapiens (Human), UniProt P08709); test: FVIIa Ki (37° C.), FVIIa-Xase assay; assay type: biochemical; conditions: for Ki: read-out: FVIIa Ki, nM 37° C.; for Ki(HK1)/Ki(FVIIa): selectivity ratio, tissue kallikrein (HK1) vs FVIIa
tissue kallikrein (HK1) = tissue kallikrein (HK1) (Homo sapiens (Human), UniProt P06870); test: Tissue kallikrein-1 (HK1) Ki, fluorogenic substrate assay; assay type: biochemical; conditions: 37° C.
Sequence of tissue kallikrein (HK1) (P06870 25-262): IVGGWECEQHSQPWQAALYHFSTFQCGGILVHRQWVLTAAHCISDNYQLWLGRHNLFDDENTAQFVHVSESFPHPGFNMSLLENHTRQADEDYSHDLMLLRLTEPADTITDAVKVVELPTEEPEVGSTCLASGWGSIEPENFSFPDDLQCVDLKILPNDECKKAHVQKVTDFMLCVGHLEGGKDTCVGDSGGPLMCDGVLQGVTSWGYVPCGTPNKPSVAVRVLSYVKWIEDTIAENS

Sequence of human FVIIa (P08709 61-212): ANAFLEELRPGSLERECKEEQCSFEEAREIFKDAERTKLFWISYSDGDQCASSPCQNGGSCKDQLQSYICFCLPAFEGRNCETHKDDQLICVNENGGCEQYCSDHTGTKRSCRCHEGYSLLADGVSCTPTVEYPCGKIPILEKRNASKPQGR
Sequence of human FVIIa (P08709 213-466): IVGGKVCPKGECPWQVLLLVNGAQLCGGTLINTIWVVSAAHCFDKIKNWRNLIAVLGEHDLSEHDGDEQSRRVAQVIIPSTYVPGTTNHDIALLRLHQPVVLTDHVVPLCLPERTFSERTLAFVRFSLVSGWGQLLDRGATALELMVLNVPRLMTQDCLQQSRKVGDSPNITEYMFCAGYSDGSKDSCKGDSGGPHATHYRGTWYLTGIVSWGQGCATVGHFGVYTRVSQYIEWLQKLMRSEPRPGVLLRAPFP
Sequence of human FVIIa (P13726 33-295 partner): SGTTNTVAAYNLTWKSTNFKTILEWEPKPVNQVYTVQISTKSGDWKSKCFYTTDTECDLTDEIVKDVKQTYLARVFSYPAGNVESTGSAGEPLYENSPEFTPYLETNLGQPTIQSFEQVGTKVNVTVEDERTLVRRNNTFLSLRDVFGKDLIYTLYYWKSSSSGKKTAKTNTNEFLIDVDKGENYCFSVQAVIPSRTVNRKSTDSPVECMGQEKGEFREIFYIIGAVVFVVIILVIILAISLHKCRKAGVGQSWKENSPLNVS

Row | Ki (human FVIIa) | Ki(HK1)/Ki(FVIIa) (human FVIIa) | Ki (tissue kallikrein (HK1)) | SMILES
1 | 0.34 nM | 1618 | 0.55 µM | Cc1cc2ccc1[C@@H](C)COC(=O)Nc1cc(F)c(OC[C@H](O)C3CC3)c(c1)CN(C)C(=O)[C@@H]2Nc1ccc2c(N)nccc2c1.O=C(O)C(F)(F)F (stereo in doubt) [Example 21, (2R,15R)-2-[(1-Aminoisoquinolin-6-yl)amino]-7-[(2S)-2-cyclopropyl-2-hydroxyethoxy]-8-fluoro-4,15,20-trimethyl-13-oxa-4,11-diazatricyclo[14.2.2.16,10]henicosa-1(18),6,8,10 (21),16,19-hexaene-3,12-dione; trifluoroacetic acid]
2 | 0.31 nM | 2516 | 0.78 µM | Cc1cc2ccc1[C@@H](C)COC(=O)Nc1ccc(S(=O)(=O)C(C)(C)C)c(c1)CN(C)C(=O)[C@@H]2Nc1ccc2c(N)nccc2c1.O=C(O)C(F)(F)F (stereo in doubt) [Example 22, (15R)-2-[(1-Aminoisoquinolin-6-yl)amino]-4,15,17-trimethyl-7-(2-methylpropane-2-sulfonyl)-13-oxa-4,11-diazatricyclo[14.2.2.1^6,10]henicosa-1(18),6,8,10 (21),16,19-hexaene-3,12-dione; trifluoroacetic acid]
3 | 38 nM | 87 | 3.33 µM | CC(C)S(=O)(=O)c1ccc2cc1CN(C)C(=O)[C@H](Nc1cc(F)c3c(N)nccc3c1)c1ccc(cc1)CCOC(=O)N2 [Comparator 1, reference compound]
4 | 11 nM | 10 | 0.11 µM | CCS(=O)(=O)c1ccc2cc1CNC(=O)[C@H](Nc1ccc3c(N)nccc3c1)c1ccc(cc1)CCOC(=O)N2 [Comparator 2, reference compound]
5 | 1.1 nM | 64 | 0.07 µM | CCS(=O)(=O)c1ccc2cc1CNC(=O)[C@H](Nc1ccc3c(N)nccc3c1)c1cc(C)c(c(C)c1)CCOC(=O)N2 [Comparator 3, reference compound]
6 | > 140 nM |  |  | C[C@H]1COC(=O)Nc2cccc(c2)CNC(=O)C(Nc2ccc3c(N)nccc3c2)c2ccc1cc2 (stereo partly drawn) [Comparator 4, reference compound]
7 | 2.3 nM | 704 | 1.62 µM | Cc1cc2cc(C)c1CC(O)CC(=O)Nc1ccc(S(=O)(=O)C3CC3)c(c1)CN(C)C(=O)[C@@H]2Nc1ccc2c(N)ncc(F)c2c1.O=C(O)C(F)(F)F (stereo partly drawn) [Example 2, (2R)-2-[(1-Amino-4-fluoroisoquinolin-6-yl)amino]-7-(cyclopropanesulfonyl)-14-hydroxy-4,17,20-trimethyl-4,11-diazatricyclo[14.2.2.1^6,10]henicosa-1(18),6,8,10 (21),16,19-hexaene-3,12-dione; trifluoroacetic acid]
8 | 2.3 nM | 117 | 0.27 µM | CCS(=O)(=O)c1ccc2cc1CN(C)C(=O)[C@H](Nc1ccc3c(N)ncc(F)c3c1)c1ccc(c(C)c1)[C@@H](C)COC(=O)N2.O=C(O)C(F)(F)F [Example 3, (2R,15R)-2-[(1-Amino-4-fluoroisoquinolin-6-yl)amino]-7-(ethanesulfonyl)-4,15,17-trimethyl-13-oxa-4,11-diazatricyclo[14.2.2.1^6,10]henicosa-1(18),6,8,10 (21),16,19-hexaene-3,12-dione; trifluoroacetic acid]
9 |  |  | 0.3 µM | CCN(Cc1nccs1)C(=O)c1ccc2cc1CN(C)C(=O)[C@H](Nc1ccc3c(N)nccc3c1)c1cc(C)c(c(C)c1)C(F)(F)COC(=O)N2.O=C(O)C(F)(F)F [Example 4, (2R)-2-[(1-Aminoisoquinolin-6-yl)amino]-N-ethyl-15,15-difluoro-4,17,20-trimethyl-3,12-dioxo-N-(1,3-thiazol-2-ylmethyl)-13-oxa-4,11-diazatricyclo[14.2.2.1^6,10]henicosa-1(18),6,8,10 (21),16,19-hexaene-7-carboxamide; trifluoroacetic acid]
10 | 2 nM | 145 | 0.29 µM | Cc1cc2cc(C)c1C(F)(F)COC(=O)Nc1ccc(S(=O)(=O)C3CC3)c(c1)CN(C)C(=O)[C@@H]2Nc1ccc2c(N)nccc2c1.O=C(O)C(F)(F)F [Example 5, (2R)-2-[(1-Aminoisoquinolin-6-yl)amino]-7-(cyclopropanesulfonyl)-15,15-difluoro-4,17,20-trimethyl-13-oxa-4,11-diazatricyclo[14.2.2.1^6,10]henicosa-1(18),6,8,10 (21),16,19-hexaene-3,12-dione; trifluoroacetic acid]
11 | 1.8 nM | 306 | 0.55 µM | COC[C@H](C)S(=O)(=O)c1ccc2cc1CN(C)C(=O)[C@H](Nc1ccc3c(N)ncc(F)c3c1)c1ccc(c(C)c1)[C@@H](C)COC(=O)N2.O=C(O)C(F)(F)F [Example 6, (2R,15R)-2-[(1-Amino-4-fluoroisoquinolin-6-yl)amino]-7-[(2S)-1-methoxypropane-2-sulfonyl]-4,15,17-trimethyl-13-oxa-4,11-diazatricyclo[14.2.2.1^6,10]henicosa-1(18),6,8,10 (21),16,19-hexaene-3,12-dione; trifluoroacetic acid]
12 | 1.2 nM | 525 | 0.63 µM | Cc1cc2ccc1[C@@H](C)COC(=O)Nc1ccc(C(=O)N3CCC3)c(c1)CN(C)C(=O)[C@@H]2Nc1ccc2c(N)nccc2c1.O=C(O)C(F)(F)F [Example 7, (2R,15R)-2-[(1-Aminoisoquinolin-6-yl)amino]-7-(azetidine-1-carbonyl)-4,15,17-trimethyl-13-oxa-4,11-diazatricyclo[14.2.2.16,10]henicosa-1(18),6,8,10 (21),16,19-hexaene-3,12-dione; trifluoroacetic acid]
13 | 1.2 nM | 583 | 0.7 µM | Cc1cc2ccc1[C@@H](C)COC(=O)Nc1ccc(S(=O)(=O)C(C)C)c(c1)CN(C)C(=O)[C@@H]2Nc1ccc2c(N)ncc(F)c2c1.O=C(O)C(F)(F)F [Example 8, (2R,15R)-2-[(1-Amino-4-fluoroisoquinolin-6-yl)amino]-4,15,17-trimethyl-7-(propane-2-sulfonyl)-13-oxa-4,11-diazatricyclo[14.2.2.1^6,10]henicosa-1(18),6,8,10 (21),16,19-hexaene-3,12-dione; trifluoroacetic acid]
14 | 0.9 nM | 356 | 0.32 µM | Cc1cc2ccc1[C@@H](C)COC(=O)Nc1ccc([C@@H](CC(F)F)C(=O)O)c(c1)CN(C)C(=O)[C@@H]2Nc1ccc2c(N)ncc(F)c2c1.O=C(O)C(F)(F)F [Example 10, (2R)-2-[(2R,15R)-2-[(1-Amino-4-fluoroisoquinolin-6-yl)amino]-4,15,17-trimethyl-3,12-dioxo-13-oxa-4,11-diazatricyclo[14.2.2.1^6,10]henicosa-1(18),6,8,10 (21),16,19-hexaen-7-yl]-4,4-difluorobutanoic acid; trifluoroacetic acid]
15 | 0.66 nM | 145 | 0.096 µM | Cc1cc2ccc1[C@@H](C)COC(=O)Nc1cc(F)c(S(=O)(=O)C3CC3)c(c1)CN(C)C(=O)[C@@H]2Nc1cc(F)c2c(N)nccc2c1.O=C(O)C(F)(F)F [Example 11, (2R,15R)-2-[(1-Amino-8-fluoroisoquinolin-6-yl)amino]-7-(cyclopropanesulfonyl)-8-fluoro-4,15,17-trimethyl-13-oxa-4,11-diazatricyclo[14.2.2.1^6,10]henicosa-1(18),6,8,10 (21),16,19-hexaene-3,12-dione; trifluoroacetic acid]
16 | 0.61 nM | 623 | 0.38 µM | CC[C@@H](C(=O)O)c1ccc2cc1CN(C)C(=O)[C@H](Nc1ccc3c(N)ncc(F)c3c1)c1ccc(c(C)c1)[C@@H](C)COC(=O)N2.O=C(O)C(F)(F)F [Example 13, (2R)-2-[(2R,15R)-2-[(1-Amino-4-fluoroisoquinolin-6-yl)amino]-4,15,17-trimethyl-3,12-dioxo-13-oxa-4,11-diazatricyclo[14.2.2.1^6,10]henicosa-1(18),6,8,10 (21),16,19-hexaen-7-yl]butanoic acid; trifluoroacetic acid]
17 | 0.5 nM | 360 | 0.18 µM | Cc1cc2ccc1[C@@H](C(F)F)COC(=O)Nc1ccc(S(=O)(=O)C3CC3)c(c1)CN(C)C(=O)[C@@H]2Nc1ccc2c(N)nccc2c1.O=C(O)C(F)(F)F [Example 16, (2R,15R)-2-[(1-Aminoisoquinolin-6-yl)amino]-7-(cyclopropanesulfonyl)-15-(difluoromethyl)-4,17-dimethyl-13-oxa-4,11-diazatricyclo[14.2.2.1^6,10]henicosa-1(18),6,8,10 (21),16,19-hexaene-3,12-dione; trifluoroacetic acid]
18 | 0.46 nM | 870 | 0.4 µM | Cc1cc2ccc1[C@@H](C)COC(=O)Nc1cc(F)c(OC[C@H](C)O)c(c1)CN(C)C(=O)[C@@H]2Nc1ccc2c(N)nccc2c1.O=C(O)C(F)(F)F [Example 17, (2R,15R)-2-[(1-Aminoisoquinolin-6-yl)amino]-8-fluoro-7-[(2S)-2-hydroxypropoxy]-4,15,20-trimethyl-13-oxa-4,11-diazatricyclo[14.2.2.1^6,10]henicosa-1(18),6,8,10 (21),16,19-hexaene-3,12-dione; trifluoroacetic acid]
19 |  |  | 0.2 µM | Cc1cc2ccc1[C@@H](CF)COC(=O)Nc1ccc(S(=O)(=O)C3CC3)c(c1)CN(C)C(=O)[C@@H]2Nc1ccc2c(N)nccc2c1.O=C(O)C(F)(F)F [Example 24, (2R,15R)-2-[(1-Aminoisoquinolin-6-yl)amino]-7-(cyclopropanesulfonyl)-15-(fluoromethyl)-4,17-dimethyl-13-oxa-4,11-diazatricyclo[14.2.2.1^6,10]henicosa-1(18),6,8,10 (21),16,19-hexaene-3,12-dione; trifluoroacetic acid]
